Reference: patent publication US6987004B1, “Genes integrating signal transduction pathways” (Massachusetts Institute of Technology, priority 1998, dated 2006)

T1: cAMP-GEFI (Rattus norvegicus, UniProt Q9Z1C8)
T1 sequence (Q9Z1C8 43-926 limits assumed): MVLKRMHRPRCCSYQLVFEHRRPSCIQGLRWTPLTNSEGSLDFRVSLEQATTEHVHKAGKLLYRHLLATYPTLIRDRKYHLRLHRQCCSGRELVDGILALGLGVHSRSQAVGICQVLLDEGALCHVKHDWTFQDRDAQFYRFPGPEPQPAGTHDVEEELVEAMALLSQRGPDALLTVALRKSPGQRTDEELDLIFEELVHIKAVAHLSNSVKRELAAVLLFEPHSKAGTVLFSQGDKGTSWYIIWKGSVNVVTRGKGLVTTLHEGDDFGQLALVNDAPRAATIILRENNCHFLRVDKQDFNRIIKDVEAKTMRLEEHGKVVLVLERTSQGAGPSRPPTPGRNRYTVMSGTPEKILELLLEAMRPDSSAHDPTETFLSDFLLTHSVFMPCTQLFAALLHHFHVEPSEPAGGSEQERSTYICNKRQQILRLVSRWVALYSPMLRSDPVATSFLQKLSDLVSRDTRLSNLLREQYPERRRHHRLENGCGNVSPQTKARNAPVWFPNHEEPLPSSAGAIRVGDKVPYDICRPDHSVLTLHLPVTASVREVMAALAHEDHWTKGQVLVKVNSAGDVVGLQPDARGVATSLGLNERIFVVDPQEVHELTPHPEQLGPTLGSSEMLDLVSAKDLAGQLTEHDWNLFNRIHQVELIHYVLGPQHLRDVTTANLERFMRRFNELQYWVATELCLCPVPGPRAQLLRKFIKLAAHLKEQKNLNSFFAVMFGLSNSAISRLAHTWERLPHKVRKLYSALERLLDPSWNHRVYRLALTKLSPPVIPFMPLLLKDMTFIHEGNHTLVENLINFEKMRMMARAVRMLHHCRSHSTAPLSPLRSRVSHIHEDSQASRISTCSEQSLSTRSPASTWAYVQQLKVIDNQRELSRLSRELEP

T2: CalDAG-GEFII (Rattus norvegicus, UniProt Q9R1K8)
T2 construct: expressed in transfected cells; host or cells: 293T cells
T2 sequence (Q9R1K8 1-795): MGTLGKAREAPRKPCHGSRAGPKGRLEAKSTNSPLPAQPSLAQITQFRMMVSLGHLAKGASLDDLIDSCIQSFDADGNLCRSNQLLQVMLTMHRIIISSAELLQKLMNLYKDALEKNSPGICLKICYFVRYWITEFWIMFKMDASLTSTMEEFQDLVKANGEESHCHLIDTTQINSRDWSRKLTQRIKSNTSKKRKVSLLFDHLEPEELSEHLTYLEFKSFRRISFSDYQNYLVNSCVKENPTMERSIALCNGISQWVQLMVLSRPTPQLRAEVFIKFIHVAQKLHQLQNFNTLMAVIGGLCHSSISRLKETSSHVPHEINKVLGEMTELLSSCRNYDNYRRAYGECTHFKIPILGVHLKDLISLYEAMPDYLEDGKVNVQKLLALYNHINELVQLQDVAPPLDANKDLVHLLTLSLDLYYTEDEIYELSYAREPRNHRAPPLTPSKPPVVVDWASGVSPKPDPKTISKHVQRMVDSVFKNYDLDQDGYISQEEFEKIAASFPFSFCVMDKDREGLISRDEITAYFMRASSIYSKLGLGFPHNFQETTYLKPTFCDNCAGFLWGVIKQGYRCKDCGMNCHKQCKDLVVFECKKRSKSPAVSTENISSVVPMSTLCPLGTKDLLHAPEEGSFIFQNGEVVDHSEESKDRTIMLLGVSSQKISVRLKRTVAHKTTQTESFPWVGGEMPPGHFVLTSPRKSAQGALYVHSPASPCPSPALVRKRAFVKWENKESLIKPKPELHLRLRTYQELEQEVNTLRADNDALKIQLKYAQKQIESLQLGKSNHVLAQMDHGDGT

T3: CalDAG-GEFI (Mus musculus, UniProt Q9QUG9)
T3 construct: expressed in transfected cells; host or cells: 293T cells
T3 sequence (Q9QUG9 with tags, fused parts or gaps M73V/I83V/Q99P/R233K/C339S/E542D/S598T limits assumed): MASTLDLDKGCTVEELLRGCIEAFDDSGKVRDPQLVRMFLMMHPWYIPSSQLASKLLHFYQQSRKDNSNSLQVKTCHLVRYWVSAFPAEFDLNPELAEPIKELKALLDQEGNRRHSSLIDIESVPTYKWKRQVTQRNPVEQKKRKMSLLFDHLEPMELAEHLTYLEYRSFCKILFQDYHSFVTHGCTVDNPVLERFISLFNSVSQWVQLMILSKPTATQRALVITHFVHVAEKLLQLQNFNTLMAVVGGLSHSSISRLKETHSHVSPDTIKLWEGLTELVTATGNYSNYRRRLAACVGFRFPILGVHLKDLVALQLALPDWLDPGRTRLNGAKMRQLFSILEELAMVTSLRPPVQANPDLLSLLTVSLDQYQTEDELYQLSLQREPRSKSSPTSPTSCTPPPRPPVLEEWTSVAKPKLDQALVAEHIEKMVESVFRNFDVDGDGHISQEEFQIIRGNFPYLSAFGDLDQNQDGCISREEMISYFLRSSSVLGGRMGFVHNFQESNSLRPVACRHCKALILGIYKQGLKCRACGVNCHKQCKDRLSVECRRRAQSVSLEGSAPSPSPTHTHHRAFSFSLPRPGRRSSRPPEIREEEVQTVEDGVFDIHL


Tests used:
cAMP-GEFI = biological target: T1, cAMP-GEFI; assay: cAMP agarose affinity bead binding assay; conditions: excess amounts of competitor; in vitro translated cAMP-GEFI
[1] = biological target: Rap1A as a fusion protein to glutathione S-transferase (pEBG-Krev1) (UniProt P62834)
CalDAG-GEFII = biological target: T2, CalDAG-GEFII; assay: Guanine nucleotide exchange activity in 293T cells transfected with CalDAG-GEFII (H-Ras activation); assay type: cell-based
Description: (§1) To determine the small G protein target of CalDAG-GEFI, guanine nucleotide exchange activity in vivo was analyzed using intact 293T cells cotransfected with a eukaryotic expression construct of mouse CalDAG-GEFI and GST-tagged Ras family proteins. Full-length mouse CalDAG-GEFI cDNA inserted into a pCMV-SPORT expression vector with a carboxy-terminal FLAG epitope was used for transfection. A PCR-amplified fragment of rat CalDAG-GEFII was subcloned into a pCAGGS expression vector with the addition of His6-tag at its amino-terminus, resulting in pCAGGS-His-CalDAGII. pEBG-Krev1 that expresses Rap1A was used as a fusion protein to glutathione S-transferase (GST) in mammalian cells, as described in Gotoh et al., 15 Mol. Cell Biol. 6746–53 (1995), pEBG-R-Ras, other vectors for Ras-family proteins obtained by inserting PCR-amplified cDNAs into pEBG expression vector, pCAGGS-C3G and pCAGGS-MSos1, and pCEV-H-RasVl2.
To determine the effect of CalDAG-GEFI on the Erk/MAP kinase cascade, Elk1 activation was measured in 293T cells transfected with CalDAG-GEFI or constitutively active H-Ras (RasV12), or both. […] 293T cells were transfected with pFR-Luc and pFA-Elk1 with various expression vectors, and light output was detected and analyzed by the use of LAS1000 film. […]

CalDAG-GEFI = biological target: T3, CalDAG-GEFI; assay: Guanine nucleotide exchange activity in intact 293T cells cotransfected with mouse CalDAG-GEFI and GST-tagged Rap1A; assay type: cell-based; conditions: 10 μM A23187 or 1 μM TPA for 3 min
Description: as §1
To determine the effect of CalDAG-GEFI on the Erk/MAP kinase cascade, Elk1 activation was measured in 293T cells transfected with CalDAG-GEFI or constitutively active H-Ras (RasV12), or both. […] 293T cells were transfected with pFR-Luc and pFA-Elk1 with various expression vectors, and light output was detected and analyzed by the use of LAS1000 film.

Elk1 = Elk1 activation in 293T cells (PathDetect Elk1 transreporting system); assay type: cell-based; conditions: for Activation of Elk1 by the GEF itself: 293T cells transfected with the GEF
Description: To determine the effect of CalDAG-GEFI on the Erk/MAP kinase cascade, Elk1 activation was measured in 293T cells transfected with CalDAG-GEFI or constitutively active H-Ras (RasV12), or both. 293T cells were transfected by SuperFect (Qiagen) as described in Gotoh, supra, with expression vectors for GST-tagged Ras family proteins and with those for various GEFs. Cells were labeled 24 hours after transfection with ^32Pi for 2 hr. In some experiments, cells were stimulated with either 10 μM A23187 or 1 μM phorbol-12-myristate-13-acetate (TPA) for 3 min. GST-tagged Ras family proteins were collected from cell lysates with glutathione Sepharose. Guanine nucleotides bound to Ras family proteins were separated by thin layer chromatography (TLC). Activation of Elk1 was examined by the PathDetect Elk1 transreporting system (Stratagene). 293T cells were transfected with pFR-Luc and pFA-Elk1 with various expression vectors, and light output was detected and analyzed by the use of LAS1000 film.

Chain of Rap1A as a fusion protein to glutathione S-transferase (pEBG-Krev1) (P62834 whole entry, the tested form may be a part): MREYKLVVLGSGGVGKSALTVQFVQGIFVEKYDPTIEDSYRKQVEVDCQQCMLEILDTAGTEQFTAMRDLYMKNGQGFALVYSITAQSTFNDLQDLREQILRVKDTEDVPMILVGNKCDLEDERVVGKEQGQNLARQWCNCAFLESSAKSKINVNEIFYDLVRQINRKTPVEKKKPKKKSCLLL

Molecule	Effect on CalDAG-GEFII H-Ras activation (CalDAG-GEFII)	Effect on CalDAG-GEFI-induced increase in GTP-bound Rap1A (CalDAG-GEFI)	Activation of Elk1 by the GEF itself (Elk1)	further results
Nc1ncnc2c1nc(Br)n2[C@@H]1O[C@@H]2COP(=O)(O)O[C@H]2[C@H]1O [8-Br-cAMP]	–	–	–	Competition of radiolabeled cAMP-GEFI binding to cAMP agarose beads (cAMP-GEFI): competed
cAMP-GEFI (wild type)	–	–	–	time-course of the activation of Rap1A by forskolin/IBMX in cAMP-GEFI transfectants [1]: the activation began within 10 sec, reached a maximum at 5 min, and continued for at least 60 min
CNc1ccc2oc(C[C@H]3O[C@@]4(CC[C@H]3C)O[C@H]([C@H](C)C(=O)c3ccc[nH]3)[C@H](C)C[C@H]4C)nc2c1C(=O)O [A23187]	enhanced	augmented	–	–
CCCCCCCCCCCCCC(=O)O[C@@H]1[C@@H](C)[C@@]2(O)[C@@H](C=C(CO)C[C@]3(O)C(=O)C(C)=C[C@@H]23)[C@@H]2C(C)(C)[C@]12OC(C)=O [TPA, phorbol-12-myristate-13-acetate]	enhanced	augmented	–	–
CalDAG-GEFII: guanine nucleotide exchange factor activating H-Ras and R-Ras; rat cDNA expressed in 293T cells (protein, left off: small tags and cut ends, rat cDNA expressed in 293T cells) MGTLGKAREAPRKPCHGSRAGPKGRLEAKSTNSPLPAQPSLAQITQFRMMVSLGHLAKGASLDDLIDSCIQSFDADGNLCRSNQLLQVMLTMHRIIISSAELLQKLMNLYKDALEKNSPGICLKICYFVRYWITEFWIMFKMDASLTSTMEEFQDLVKANGEESHCHLIDTTQINSRDWSRKLTQRIKSNTSKKRKVSLLFDHLEPEELSEHLTYLEFKSFRRISFSDYQNYLVNSCVKENPTMERSIALCNGISQWVQLMVLSRPTPQLRAEVFIKFIHVAQKLHQLQNFNTLMAVIGGLCHSSISRLKETSSHVPHEINKVLGEMTELLSSCRNYDNYRRAYGECTHFKIPILGVHLKDLISLYEAMPDYLEDGKVNVQKLLALYNHINELVQLQDVAPPLDANKDLVHLLTLSLDLYYTEDEIYELSYAREPRNHRAPPLTPSKPPVVVDWASGVSPKPDPKTISKHVQRMVDSVFKNYDLDQDGYISQEEFEKIAASFPFSFCVMDKDREGLISRDEITAYFMRASSIYSKLGLGFPHNFQETTYLKPTFCDNCAGFLWGVIKQGYRCKDCGMNCHKQCKDLVVFECKKRSKSPAVSTENISSVVPMSTLCPLGTKDLLHAPEEGSFIFQNGEVVDHSEESKDRTIMLLGVSSQKISVRLKRTVAHKTTQTESFPWVGGEMPPGHFVLTSPRKSAQGALYVHSPASPCPSPALVRKRAFVKWENKESLIKPKPELHLRLRTYQELEQEVNTLRADNDALKIQLKYAQKQIESLQLGKSNHVLAQMDHGDGT	–	–	increased the transcriptional activity of Elk1	–
CalDAG-GEFI: guanine nucleotide exchange factor with Ca2+ and DAG binding domains, substrate Rap1A; mouse cDNA expressed in 293T cells (protein) MASTLDLDKGCTVEELLRGCIEAFDDSGKVRDPQLVRMFLMMHPWYIPSSQLASKLLHFYQQSRKDNSNSLQVKTCHLVRYWVSAFPAEFDLNPELAEPIKELKALLDQEGNRRHSSLIDIESVPTYKWKRQVTQRNPVEQKKRKMSLLFDHLEPMELAEHLTYLEYRSFCKILFQDYHSFVTHGCTVDNPVLERFISLFNSVSQWVQLMILSKPTATQRALVITHFVHVAEKLLQLQNFNTLMAVVGGLSHSSISRLKETHSHVSPDTIKLWEGLTELVTATGNYSNYRRRLAACVGFRFPILGVHLKDLVALQLALPDWLDPGRTRLNGAKMRQLFSILEELAMVTSLRPPVQANPDLLSLLTVSLDQYQTEDELYQLSLQREPRSKSSPTSPTSCTPPPRPPVLEEWTSVAKPKLDQALVAEHIEKMVESVFRNFDVDGDGHISQEEFQIIRGNFPYLSAFGDLDQNQDGCISREEMISYFLRSSSVLGGRMGFVHNFQESNSLRPVACRHCKALILGIYKQGLKCRACGVNCHKQCKDRLSVECRRRAQSVSLEGSAPSPSPTHTHHRAFSFSLPRPGRRSSRPPEIREEEVQTVEDGVFDIHL	–	–	did not itself activate Elk1	Reduction of RasV12 activation of Elk1 (Elk1; 293T cells cotransfected with constitutively active H-Ras (RasV12)): approximately 4 fold
